Test results reported in ChEMBL document CHEMBL5532750, “Small molecule targeted therapies for endometrial cancer: progress, challenges, and opportunities” (RSC Med Chem, 2024).
pIC50: −log10 of the molar value.

How the values were obtained:
Ishikawa [1] = assay: Anticancer activity against human Ishikawa cells assessed as cell mortality rate at 600 uM measured after 48 hrs by MTT assay relative to control; assay type: functional
Ishikawa [2] = assay: Anticancer activity against human Ishikawa cells assessed as cell mortality rate at 100 uM measured after 48 hrs by MTT assay relative to control; assay type: functional
ECC-1 [3] = assay: Antitumor activity against human ECC-1 cells xenografted in LKB1fl/flp53fl/fl mouse assessed as tumor growth inhibition (reference value: 68 %); assay type: functional
Ishikawa [4] = assay: Antitumor activity against human Ishikawa cells xenografted in LKB1fl/flp53fl/fl mouse assessed as tumor growth inhibition (reference value: 68 %); assay type: functional
USPC-ARK-1 [5] = assay: Antiproliferative activity against human USPC-ARK-1 cells assessed as reduction in cell viability incubated for 72 hrs by MTT assay; assay type: functional, cell-based; details: USPC-ARK-1, 72 h
SPEC-2 [6] = assay: Antiproliferative activity against human SPEC-2 cells assessed as reduction in cell viability incubated for 72 hrs by MTT assay; assay type: functional, cell-based; details: SPEC-2, 72 h
USPC-ARK-1 [7] = assay: Induction of cell death in human USPC-ARK-1 cells assessed as increase in cleaved caspase-3 by measuring fold change using Ac-DEVD-AMC as substrate at 5 uM incubated for 24 hrs followed by substrate addition and measured after 30 mins by ELISA analysis; assay type: functional; details: time 1470 min, 24.5 h
SPEC-2 [8] = assay: Induction of cell death in human SPEC-2 cells assessed as increase in cleaved caspase-3 by measuring fold change using Ac-DEVD-AMC as substrate at 5 uM incubated for 24 hrs followed by substrate addition and measured after 30 mins by ELISA analysis; assay type: functional; details: time 1470 min, 24.5 h
USPC-ARK-1 [9] = assay: Induction of cell death in human USPC-ARK-1 cells assessed as increase in caspase-9 by measuring fold change using […] as substrate at 5 uM incubated for 24 hrs followed by substrate addition and measured after 30 mins by ELISA analysis; assay type: functional; details: time 1470 min, 24.5 h
SPEC-2 [10] = assay: Induction of cell death in human SPEC-2 cells assessed as increase in caspase-9 by measuring fold change using […] as substrate at 5 uM incubated for 24 hrs followed by substrate addition and measured after 30 mins by ELISA analysis; assay type: functional; details: time 1470 min, 24.5 h
USPC-ARK-1 [11] = assay: Induction of cell death in human USPC-ARK-1 cells assessed as increase in ROS level at 5 uM incubated for 24 hrs by DCFH-DA based microplate reader analysis relative to control; assay type: functional
SPEC-2 [12] = assay: Induction of cell death in human SPEC-2 cells assessed as increase in ROS level at 5 uM incubated for 24 hrs by DCFH-DA based microplate reader analysis relative to control; assay type: functional
USPC-ARK-1 [13] = assay: Induction of apoptosis in human USPC-ARK-1 cells assessed as decrease in mitochondrial membrane potential at 5 uM incubated for 8 hrs by JC-1 fluorescent probe based plate reader analysis; assay type: functional; design: scale not given: the % may be the effect or the level left
SPEC-2 [14] = assay: Induction of apoptosis in human SPEC-2 cells assessed as decrease in mitochondrial membrane potential at 5 uM incubated for 8 hrs by JC-1 fluorescent probe based plate reader analysis; assay type: functional; design: scale not given: the % may be the effect or the level left
USPC-ARK-1 [15] = assay: Inhibition of cell invasion in serum-starved human USPC-ARK-1 cells at 0.05 to 5 uM incubated for 3.5 hrs by calcein AM staining based plate reader analysis relative to control; assay type: functional; details: dose 0.05-5 µM
SPEC-2 [16] = assay: Inhibition of cell invasion in serum-starved human SPEC-2 cells at 0.05 to 5 uM incubated for 3.5 hrs by calcein AM staining based plate reader analysis relative to control; assay type: functional; details: dose 0.05-5 µM
Ishikawa [17] = assay: Antiproliferative activity against human Ishikawa cells assessed as inhibition of VEGF secretion measured after 24 hrs by ELISA assay; assay type: functional, cell-based
Ishikawa [18] = assay: Antiproliferative activity against human Ishikawa cells assessed as reduction in cell viability; assay type: functional, cell-based
HEC-1B cell line [19] = assay: Antiproliferative activity against human HEC-1B cell line assessed as reduction in cell viability
ECC-1 [20] = assay: Antiproliferative activity against human ECC-1 cells assessed as combination index at 0.5 mM incubated for 48 hrs in presence of paclitaxel by MTT assay; assay type: functional
Ishikawa [21] = assay: Antiproliferative activity against human Ishikawa cells assessed as combination index at 0.5 mM incubated for 48 hrs in presence of paclitaxel by MTT assay; assay type: functional
ECC-1 [22] = assay: Antiproliferative activity against human ECC-1 cells assessed as reduction in cell viability; assay type: functional, cell-based
RL95-2 = assay: Induction of apoptosis in human RL95-2 cells assessed as fold change incubated for 48 hrs; assay type: functional
HEC-1B cell line [23] = assay: Induction of apoptosis in human HEC-1B cell line assessed as fold change incubated for 48 hrs; assay type: functional
Ishikawa [24] = assay: Induction of apoptosis in human Ishikawa cell line assessed as fold change incubated for 48 hrs; assay type: functional
ECC-1 [25] = assay: Antiproliferative activity against human ECC-1 cells assessed as combination index incubated for 48 hrs in presence of Metformin by MTT assay; assay type: functional
Ishikawa [26] = assay: Antiproliferative activity against human Ishikawa cells assessed as combination index incubated for 48 hrs in presence of Metformin by MTT assay; assay type: functional
Ishikawa [27] = assay: Anticancer activity against human Ishikawa cells assessed as cell mortality rate at 100 uM measured after 24 hrs by MTT assay relative to control; assay type: functional

## OB(O)c1ccc(/C=N/c2ccc(-c3ccc(/N=C/c4ccc(B(O)O)cc4)cc3)cc2)cc1
Ishikawa [1]
  Activity: 14%

## OB(O)c1cccc(/C=N/c2ccc(-c3ccc(/N=C/c4cccc(B(O)O)c4)cc3)cc2)c1
Ishikawa [2]
  Activity: 84%

## O=C1C2=C(CCN(Cc3ccccc3)C2)N2CCN=C2N1Cc1ccc(F)cc1F [ONC-206]
ECC-1 [3]
  TGI: 73%
Ishikawa [4]
  TGI: 73%
USPC-ARK-1 [5]
  pIC50: 6.48
SPEC-2 [6]
  pIC50: 6.62
USPC-ARK-1 [7]
  fold change (FC): 1.7
SPEC-2 [8]
  fold change (FC): 1.4
USPC-ARK-1 [9]
  fold change (FC): 1.5
SPEC-2 [10]
  fold change (FC): 1.4
USPC-ARK-1 [11]
  Activity: 83%
SPEC-2 [12]
  Activity: 83%
USPC-ARK-1 [13]
  Activity: 16%
SPEC-2 [14]
  Activity: 16%
USPC-ARK-1 [15]
  inhibition (INH): 26.6%
SPEC-2 [16]
  inhibition (INH): 34%

## OB(O)c1ccc(/C=N/c2cccc3cccc(/N=C/c4ccc(B(O)O)cc4)c23)cc1
Ishikawa [2]
  Activity: 72%

## CCN(CC)CCCOc1ccc(-n2c3c(c4ccccc4c2=O)C(=O)c2ccccc2-3)cc1
Ishikawa [17]
  pIC50: 8.51

## O=C(O)c1ccc(C(=O)O)c(/N=C/c2ccc(B(O)O)cc2)c1
Ishikawa [1]
  Activity: 72%

## NC(=O)c1cccc2cn(-c3ccc([C@@H]4CCCNC4)cc3)nc12 [NIRAPARIB]
Ishikawa [18]
  pIC50: 7.62
HEC-1B cell line [19]
  pIC50: 6.90

## CN(C)C(=N)NC(=N)N [METFORMIN]
ECC-1 [20]
  CI: <1
Ishikawa [21]
  CI: <1

## CCC(C)(C)C(=O)O[C@H]1C[C@@H](C)C=C2C=C[C@H](C)[C@H](CC[C@@H]3C[C@@H](O)CC(=O)O3)[C@H]21 [SIMVASTATIN]
ECC-1 [22]
  pIC50: ~4.82
Ishikawa [18]
  pIC50: ~4.77
RL95-2
  fold change (FC): 354
HEC-1B cell line [23]
  fold change (FC): 88
Ishikawa [24]
  fold change (FC): 127

## O=C(O)CN=C(/N=C/c1ccc(B(O)O)cc1)/N=C/c1ccc(B(O)O)cc1
Ishikawa [1]
  Activity: 18%

## CC(=O)O[C@H]1C(=O)[C@@]2(C)[C@H]([C@H](OC(=O)c3ccccc3)[C@]3(O)C[C@H](OC(=O)[C@H](O)[C@@H](NC(=O)c4ccccc4)c4ccccc4)C(C)=C1C3(C)C)[C@]1(OC(C)=O)CO[C@@H]1C[C@@H]2O [PACLITAXEL]
ECC-1 [22]
  pIC50: 10.00
Ishikawa [18]
  pIC50: 9.30
ECC-1 [25]
  CI: <1
Ishikawa [26]
  CI: <1

## O=c1[nH]cc(F)c(=O)[nH]1 [FLUOROURACIL]
Ishikawa [18]
  pIC50: < 4.00

## CC(C)CC(/N=C/c1ccc(B(O)O)cc1)C(=O)O (stereo not drawn)
Ishikawa [1]
  Activity: 76%

## CC(C)CC(/N=C/c1cccc(B(O)O)c1)C(=O)O (stereo not drawn)
Ishikawa [1]
  Activity: 88.3%

## O=C(O)CSC[C@H](/N=C/c1ccc(B(O)O)cc1)C(=O)O
Ishikawa [27]
  Activity: 54%
Ishikawa [2]
  Activity: 49%
